Compound `CC1(C)OC2OC(CN3C(=O)C4(COc5cc6c(cc54)OCCO6)c4ccccc43)C3OC(C)(C)OC3C2O1` (configuration not stated) yielded a melting point of 112 to 118 °C.
Compound `Cc1cccc2[nH]c(Cl)nc12` came in with a melting point of 138 to 140 °C.
Consider `O=C(O)c1cccc(-c2nn(Cc3ccccc3)c3ccccc23)c1`, for which the melting point fell in the range of 190 to 192 °C.
`CCOC(=O)C(=O)c1ccc(C)[nH]1` gave a melting point of 72 to 74 °C.
Compound `CSc1ncnn1C[C@]1(c2ccc(F)c(F)c2)O[C@@H]1c1ccccc1C(F)(F)F` (relative stereo) registered a melting point of 83 to 85 °C.
`O=C1[C@H]2CCC[C@H]2N(C(=O)CNCc2ccccc2)c2ccccc2N1Cc1ccccc1` (relative stereo): the melting point was 95 to 98 °C.
In the case of `COC(=O)C1=C(Cc2ccccc2)C(=O)NCC1`, the melting point fell in the range of 104 to 108 °C.
Regarding `CS(=O)(=O)c1ccc(-c2nc(C(F)(F)F)nc(NN)c2-c2ccc(F)cc2)cc1`, the melting point was 286 to 290 °C.
For `CC1(c2ccccc2)Cc2c3c(c(Cl)c(Cl)c2C1=O)OC(C(=O)O)C3` (configuration not stated), the melting point was found to be 188 °C.
Consider `COc1ccnc2c1cc(C)n2Cc1ccccc1`, for which the melting point lay within 129 to 131 °C.
On to `CC1(C)OCC([N+](=O)[O-])CO1`, for which the melting point lay within 60 to 61 °C.
With `CN(C)C=C(C(=O)c1ccccc1)C(=O)c1ccccc1` the figure was 120 °C.
The compound `C=C1C(=O)N(C)CCC1(O)c1cccc(OC)c1` (configuration not stated) showed a melting point of 127 to 128 °C.
With `N#Cc1nn(-c2c(Cl)cc(C(F)(F)F)cc2Cl)cc1-c1ccoc1Cl` the figure was 125 °C; with `CC(C)c1n[nH]c2c(NCc3ccccc3)ncnc12`, 153 to 154 °C; with `O=C(O)c1c2c(nc3ccc(F)cc13)-c1ccc(-c3ccccc3F)cc1CC2`, greater than 300 °C.
On to `CC(C)(C)c1ccc(-c2cc3ccc(C(=O)O)cc3s2)cc1`, for which the melting point was 318 °C.
For `COc1cccc([C@H]2O[C@H](CC(=O)NCc3cccc(CCC(=O)O)c3)C(=O)N(CC(C)(C)CO)c3ccc(Cl)cc32)c1OC`, the melting point lay in the range of 177 to 178 °C.
In turn, `Cc1oc(-c2ccccc2)nc1C(O)c1cc2cc(Br)ccc2o1` (configuration not stated) came in with a melting point of 152 to 154 °C.
`CC1=C(CNC(=O)NCCCN(C)C)c2cc(F)ccc2/C1=C\c1ccc(S(C)(=O)=O)cc1` yielded a melting point of 147 °C.
With `CC(C)=NOCc1nc2c(N)nc(C)c(C)c2n1CCCCN(C(N)=O)C1CCCCC1` the figure was 210 to 212 °C; with `COc1ccc(C=CC(=O)c2c(OC)cc(OC)cc2OP(=O)(O)O)cc1`, 71 to 73 °C; with `CCCCCCCCCCCCCCCCCCNC(=O)OCC(COC)CN(C(C)=O)S(=O)(=O)CCCI` (configuration not stated), 71 to 72 °C.
Compound `CC(O)c1cc2c(s1)C(C)(C)CCC2(C)C` (configuration not stated) registered a melting point of 53 to 55 °C.
Compound `CC(C)S(=O)(=O)c1cc(OCCc2ccccn2)c2[nH]nc(Nc3nccs3)c2c1` returned a melting point of 190 to 191 °C.
In turn, `COCCN(C)CC(=O)N(C)Cc1ccc(C(=O)Nc2nc3c(OC)ccc(N4CCOCC4)c3s2)cc1` yielded a melting point of 171 to 173 °C.
`S=c1n(CCc2ccccc2)ccn1C1CCc2ccccc2C1` (configuration not stated) showed a melting point of 140 to 142 °C.
In the case of `Cc1nc(-c2ccc(C(F)(F)F)cc2)oc1CSc1ccc(OCC(=O)O)cc1`, the melting point fell in the range of 131 to 133 °C.
`COc1cc(CN/C=C2\C(=O)NC(=O)c3ccc(-c4ccc(Oc5ccccc5)cc4)cc32)cc(O)c1OC` gave a melting point of 240 to 241 °C.
With `Nc1cccnc1Nc1ccc(Cl)cc1C(=O)c1ccccc1Cl` the figure was 162 to 164 °C; with `CCC(=O)OC1(C(=O)COC(C)=O)CCC2C3CC(C)C4=CC(=O)C=CC4(C)C3C(O)CC21C` (configuration not stated), 138 °C.
As for `COc1cc(NC(=O)Nc2ccc(Oc3ccncc3)cc2)cc(C(F)(F)F)c1`, the melting point was 162 to 164 °C.
`Cc1nc2cccc(C)c2c(=O)[nH]1` returned a melting point of 255 to 257 °C.
With `O=C1CCc2cccc3c2N1C(=O)C3`, the melting point lay in the range of 194 to 197 °C.
Take `CCN1CCC(c2ccc(Br)cc2)CC1`: the melting point fell in the range of 33 to 34 °C.
In the case of `CCCCCCCCNC(=O)N1CCC(c2cc(Cc3ccc(OC)cc3)nc(N)n2)CC1`, the melting point lay in the range of 104 to 106 °C.
Consider `Cc1ccc(C(=O)Nc2cc(N3CCN(C)CC3)cc(C(F)(F)F)c2)cc1Nc1nccc(-c2cccnc2)n1`, for which the melting point lay in the range of 192 to 194 °C.
In the case of `CCCOc1ccc(-c2csc(-c3ccccc3Cl)c2CC(=O)N=C(N)N)cc1`, the melting point was in the range of 111 to 113 °C.
In turn, `Cc1sc2c(c1C(=O)c1ccccc1)CCC2C(N)=O` (configuration not stated) yielded a melting point of 165 to 168 °C.
Regarding `NC(N)=NC(=O)Cc1c(-c2ccccc2)csc1-c1ccccc1`, the melting point was in the range of 204 to 206 °C.
With `CN1CCC(Nc2nc3ccccc3n2Cc2ccccc2)CC1` the figure was 94 to 102 °C.
In turn, `CC(C)OC(=O)N1c2cncnc2NC(=S)C1C` (racemic) displayed a melting point of 203 to 204 °C.
The compound `Cn1c(=O)c2c(ncn2CCCCCCO)n(C)c1=O` returned a melting point of 80 °C.
With `CC(C)(C)OC(=O)NC(Cc1ccccc1)C(=O)Nc1nc(CC(=O)O)cs1` (configuration not stated) the figure was 189 to 190 °C; with `Cc1ccc(OCn2cc(Cl)cnc2=O)cc1`, 186 °C.
`CCn1cc(C(=O)O)c(=O)c2cc(F)c(N3CCNC(c4cccs4)C3)cc21` (configuration not stated) gave a melting point of 232 to 234 °C.
Compound `CC(CN1CC(=O)N(CN2CCN(c3ccccc3)CC2)C(=O)C1)N1CC(=O)N(CN2CCN(c3ccccc3)CC2)C(=O)C1` (configuration not stated) had a melting point of 94 to 101 °C.
The compound `O=C(O)[C@H](Cc1ccc(C(F)(F)F)cc1)[C@H](O)c1ccc(F)cc1` (racemic) yielded a melting point of 111 to 112 °C.
With `COc1ccc2[nH]cc(CC(C)(C)[N+](=O)[O-])c2c1` the figure was 83 to 85 °C; with `Cc1nc(-c2ccc(F)cc2)c(-c2ccc(S(C)(=O)=O)cc2)o1`, 158 to 159 °C; with `Cc1ccc(-n2c(-c3ccccc3)cc(Br)c2-c2ccccc2)cc1`, 201 to 202 °C.
`CC1(CNC(=O)CCl)OCCO1` returned a melting point of 128 to 130 °C.
With `CCOC(=O)c1cc(C#N)c(C=O)nc1Nc1ccccc1` the figure was 165 to 167 °C.
Turning to `CN(C)C(=S)SC(C[N+](=O)[O-])c1cc([N+](=O)[O-])ccc1Cl` (configuration not stated), the melting point lay within 120 to 121 °C.
Regarding `O=C(Nc1c[nH]nc1C(=O)NCCNc1ccccc1)c1ccccn1`, the melting point fell in the range of 184 to 186 °C.
Consider `CCOCn1c(C(N)=O)c(OC(C)C)c2cc(OC)ccc21`, for which the melting point is 110 to 112 °C.
Take `O=C(O)c1csc(CO)c1`: the melting point turned out to be 149 °C.
`C=C(COc1ccc(C(=O)CCC(=O)OC)cc1)COc1ccc(C(C)=O)c(O)c1CCC`: the melting point is 89 to 90 °C.
The compound `CC(=O)c1cc(N2CCOCC2)ccc1NC(=O)c1ccc(OCc2ccccc2)cc1` gave a melting point of 172 to 175 °C.
With `CON(C)C(=O)c1nc(C(C)(C)C)c(O)c(C(C)(C)C)n1` the figure was 137 to 138 °C.
With `COc1cc(N)c(Cl)cc1C(=O)N[C@H]1CCN(CCNC(=O)c2ccc(F)cc2)C[C@H]1OC` (relative stereo) the figure was 209 °C; with `Clc1nc(Cl)c2[nH]nnc2n1`, greater than 260 °C; with `CC(C)(C)OC(=O)N1CCCC(c2nc(-c3ccncc3)c(-c3ccc(F)cc3)[nH]2)C1` (configuration not stated), 193 to 194 °C.
Compound `O=C(O)CCc1ccc(C(=O)NCc2ccccn2)cc1` showed a melting point of 83.8 °C.
For `O=C(O)c1ccc(F)s1`, the melting point was 140 to 142 °C.
In turn, `O=C(NCCN1CCCC1)c1ccc(-c2ccc3nnn(Cc4ccc5ncccc5c4)c3n2)cc1` yielded a melting point of 135 to 137 °C.
The compound `Cc1nc(C)c(Cl)c(NCc2ccc(Oc3ccc4ncc([N+](=O)[O-])n4n3)cc2)n1` had a melting point of 203 °C.
As for `O=C(Nc1ccccc1)c1ccc(CSc2ccc(O)cc2)cc1`, the melting point was in the range of 220 to 222 °C.
Compound `Cc1ccc(C(=O)Nc2ccccc2)cc1NC(=S)Nc1cc(Cl)cc(Cl)c1` yielded a melting point of 182 to 184 °C.
`CC(C)n1nc(-c2c(-c3ccccc3)nn3ccc(N4CCN(c5ccccc5)CC4)cc23)ccc1=O`: the melting point is greater than 240 °C.
On to `c1ccc(C2SC3(CCNCC3)c3ccccc32)cc1` (configuration not stated), for which the melting point is 142 to 144 °C.
In the case of `COc1ccc(-c2c3c(cc4ccc(OC)c(OC)c24)C(=O)NC3)cc1`, the melting point fell in the range of 258 to 260 °C.
On to `BrCc1ccc2ccccc2c1Br`, for which the melting point lay in the range of 106 to 108 °C.
`O=[N+]([O-])c1cccc(C(c2cccc([N+](=O)[O-])c2)(C(F)(F)F)C(F)(F)F)c1` showed a melting point of 118 to 119 °C.
For `CCOC(=O)CCCCC(NS(=O)(=O)c1ccccc1)c1ccc2ccccc2c1` (configuration not stated), the melting point lay within 81 to 84 °C.
With `CN(C)c1ccc(-c2ccnc3c(C(=O)c4cccs4)cnn23)cc1NC(=O)c1ccncc1` the figure was 151 to 153 °C.
`O=C(c1ccccc1)c1cccc2cc[nH]c12`: the melting point fell in the range of 100 to 104 °C.
`CN(CCCN1c2ccccc2CCc2ccccc21)C(=O)c1cccnc1` yielded a melting point of 84 to 86 °C.
`Cc1ccccc1C(Oc1cc(OCc2cncs2)ccc1C#N)C(=O)O` (configuration not stated): the melting point fell in the range of 226 to 227 °C.
With `O=C(O)CCc1cn(Cc2ccc(OCc3cccc(-c4cnccn4)c3)cc2)cc1-c1ccccc1` the figure was 91 to 92 °C.
Regarding `CC(=O)c1cccc(NC(=O)c2ccc3c(c2)CC(COCc2ccccc2)O3)c1O` (configuration not stated), the melting point lay in the range of 103 to 105 °C.
For `CCC(=O)NCCC1CCc2cc(F)c(O)cc21` (configuration not stated), the melting point lay within 93 to 96 °C.
Consider `Fc1cc(Cl)c2ccc(Cl)cc2n1`, for which the melting point is 105 to 106 °C.
With `O=C(Nc1ccc(F)cc1F)Nc1c(-c2ccccc2)c2cc(Cl)ccc2[nH]c1=O` the figure was 222 to 224 °C; with `CCn1cc(C(=O)O)c(=O)c2cc(OC)c(C3CCCCC3)cc21`, 176 to 178 °C.
As for `Cn1ccnc1Sc1cc(Cl)ccc1N`, the melting point is 116 to 120 °C.
On to `COc1ccnc(C(=O)N[C@H]2COC[C@H](OCCC(C)C)[C@@H](OCCC(C)C)[C@H](C)OC2=O)c1O`, for which the melting point is 61 to 70 °C.

Source of the values: a melting point compilation (Tetko et al.; mined from patent text by program, amines drawn as free bases though some values may be those of a salt).
